This note sets out measurements from DBAASP.

Common to all, as to assay: ≥ marks a high value that may be exact or a test limit, other limits are often not marked, values filed in µg/mL are converted to µM
Assay [1] has as its system Pseudomonas aeruginosa ATCC 27853.
Assay [2] concerns Escherichia coli IS117#.
The test system of assay [3] is Enterococcus faecalis ATCC 29212.
For assay [4], the system named is Enterobacter cloacae ATCC 13047.
Assay [5] concerns Klebsiella pneumoniae ATCC 700603.
The test system of assay [6] is Escherichia coli IS218#.
Assay [7] concerns Pseudomonas aeruginosa CMCCB 1010.
Assay [8] has as its system Shigella dysenteriae.
Assay [9] deals with Escherichia coli ATCC 25922.
Assay [10] concerns Escherichia coli IS37#.
In assay [11] the test system is Pseudomonas aeruginosa IS350#.
The test system of assay [12] is Candida albicans ATCC 90028.
Assay [13] has as its system Candida albicans ATCC 2002.
Assay [14] has as its system Staphylococcus aureus ATCC 25923.
Assay [15] concerns Candida parapsilosis ATCC 22019.
Assay [16] deals with Pseudomonas aeruginosa Ps64.
Assay [17] has as its system Pseudomonas aeruginosa Ps1.
Assay [18] has as its system Pseudomonas aeruginosa PAO1.
In assay [19] the test system is Pseudomonas aeruginosa Ps4.
The subject of assay [20] is Pseudomonas aeruginosa PAOLC1-6.
The subject of assay [21] is Pseudomonas aeruginosa Ps2.
Assay [22] has as its system Pseudomonas aeruginosa Ps74.
Assay [23] has as its system Pseudomonas aeruginosa Ps6.
Assay [24] has as its system Pseudomonas aeruginosa TNP004.
For assay [25], the system named is Pseudomonas aeruginosa Ps71.
Assay [26] deals with Pseudomonas aeruginosa Ps21.
Assay [27] has as its system Pseudomonas syringae pv. syringae EPS 94.
The test system of assay [28] is Erwinia amylovora PMV 6076.
In assay [29] the test system is Xanthomonas campestris pv. Vesicatoria 2133-2.
Assay [30] concerns Staphylococcus aureus UAMS-1.
Assay [31] relates to Escherichia coli DC2.
Assay [32] concerns Staphylococcus aureus.
Assay [33] concerns Escherichia coli K-12.
Assay [34] relates to Escherichia coli BW25113.
The subject of assay [35] is Escherichia coli BW25113 ΔwaaG.
The test system of assay [36] is Escherichia coli BW25113 ΔsbmA.
Assay [37] concerns Staphylococcus aureus PEP 4/3.
The subject of assay [38] is Pseudomonas putida NCIM 2102.
Assay [39] concerns Escherichia coli W160-37.
The subject of assay [40] is Bacillus subtilis.

Converted amounts (≈) assume the structure as drawn.

Consider `CC[C@H](C)[C@@H]1NC(=O)[C@H](C)NC(=O)[C@@H](NC(=O)[C@H](Cc2ccccc2)NC(=O)[C@@H](NC(=O)[C@@H](NC(=O)[C@@H]2CCCN2C(=O)[C@@H](NC(=O)[C@@H](NC(=O)[C@H](CCCCN)NC(=O)CNC(=O)[C@H](CO)NC(=O)[C@@H](NC(=O)[C@H](CS)NC(=O)[C@H](CCC(=O)O)NC(=O)[C@H](CC(C)C)NC(=O)CNC(=O)[C@@H]2CCCN2C(=O)[C@H](CC(C)C)NC(=O)[C@@H](N)Cc2ccccc2)C(C)C)[C@@H](C)CC)C(C)C)[C@@H](C)O)C(C)C)CSSC[C@@H](C(=O)O)NC(=O)[C@H]([C@@H](C)CC)NC(=O)[C@H](CCCN=C(N)N)NC(=O)[C@H]([C@@H](C)O)NC1=O` [FLPGLECVSGKIVPTVFCAITRIC], for which the MIC worked out at 7.79 µM (≈ 20 µg/mL) in assay [1]; 3.9 µM (≈ 9.99 µg/mL) in assay [2]; 3.9 µM (≈ 9.99 µg/mL) in assay [3]; 3.9 µM (≈ 9.99 µg/mL) in assay [4]; 1.95 µM (≈ 5 µg/mL) in assay [5]; 7.79 µM (≈ 20 µg/mL) in assay [6]. For the same molecule, the MIC in assay [7] is 1.95 µM (≈ 5 µg/mL); in [8], 3.9 µM (≈ 9.99 µg/mL); in assay [9], 0.974 µM (≈ 2.5 µg/mL); in assay [10], 7.79 µM (≈ 20 µg/mL); in assay [11], 7.79 µM (≈ 20 µg/mL); in assay [12], 3.9 µM (≈ 9.99 µg/mL). In addition, the MIC in [13] worked out at 1.95 µM (≈ 5 µg/mL); in assay [14] it was 1.95 µM (≈ 5 µg/mL); in assay [15], 3.9 µM (≈ 9.99 µg/mL).

Regarding `NC(=O)[C@H](CCCN=C(N)N)NC(=O)[C@H](CCCN=C(N)N)NC(=O)[C@H](Cc1c[nH]c2ccccc12)NC(=O)[C@H](Cc1ccccc1)NC(=O)[C@H](CCCN=C(N)N)NC(=O)[C@H](CCCN=C(N)N)NC(=O)[C@H](Cc1c[nH]c2ccccc12)NC(=O)[C@@H](N)Cc1ccccc1` [FWRRFWRR], the MIC in assay [16] was not below 135 µM; in assay [17] it was not below 34.3 µM; in assay [18], 34.3 µM (≈ 44.9 µg/mL); in assay [19] it was not below 47.7 µM; in [20], not below 34.3 µM; in assay [21], not below 135 µM. In addition, the MIC is not below 135 µM in assay [22]; not below 34.3 µM in [23]; not below 34.3 µM in assay [24]; not below 34.3 µM in [25]; not below 135 µM in assay [26].

Take `CC[C@H](C)[C@H](NC(=O)[C@H](CCCCN)NC(=O)[C@H](CCCCN)NC(=O)[C@H](Cc1ccccc1)NC(=O)[C@H](CC(C)C)NC(=O)[C@H](CCCCN)NC(=O)[C@H](CCCCN)NC(=O)[C@H](CC(C)C)NC(=O)[C@H](Cc1ccc(O)cc1)NC(=O)[C@H](CCCCN)NC(=O)[C@H](CC(C)C)NC(=O)[C@@H](NC(=O)[C@H](CCCCN)NC(=O)[C@H](CCCCN)NC(=O)[C@H](Cc1ccccc1)NC(=O)[C@H](CC(C)C)NC(=O)[C@H](CCCCN)NC(=O)[C@@H](N)CCCCN)[C@@H](C)CC)C(=O)N[C@@H](CC(C)C)C(=O)N[C@@H](CCCCN)C(=O)N[C@@H](Cc1ccc(O)cc1)C(=O)N[C@@H](CC(C)C)C(=O)O` [KKLFKKILKYLKKLFKKILKYL]: the minimum inhibitory concentration (MIC) in assay [27] worked out at 6.12 µM (≈ 17.3 µg/mL); in [28] it was 14.1 µM (≈ 40 µg/mL); in assay [29] it was 1.77 µM (≈ 5 µg/mL).

In the case of `CC[C@H](C)[C@H](NC(=O)[C@H](CCCCN)NC(=O)[C@H](CCC(=O)O)NC(=O)[C@H](CCCCN)NC(=O)[C@H](C)NC(=O)[C@H](CCCCN)NC(=O)[C@H](CCCN=C(N)N)NC(=O)[C@H](Cc1ccccc1)NC(=O)[C@H](Cc1ccccc1)NC(=O)[C@H](CC(=O)O)NC(=O)CNC(=O)[C@H](CC(C)C)NC(=O)[C@@H](N)CC(C)C)C(=O)NCC(=O)N[C@@H](CCCCN)C(=O)N[C@@H](CCC(=O)O)C(=O)N[C@@H](Cc1ccccc1)C(=O)N[C@@H](CCCCN)C(=O)N[C@@H](CCCN=C(N)N)C(=O)N[C@H](C(=O)N[C@H](C(=O)N[C@@H](CCC(N)=O)C(=O)N[C@@H](CCCN=C(N)N)C(=O)O)C(C)C)[C@@H](C)CC` [LLGDFFRKAKEKIGKEFKRIVQR], the MIC is not below 160 µM in assay [30], 9 µM (≈ 25.3 µg/mL) in assay [31], more than 24 µM in assay [32] and not below 80 µM in assay [33].

In the case of `CC[C@H](C)[C@H](NC(=O)[C@H](CCCN=C(N)N)NC(=O)[C@@H](N)CCCN=C(N)N)C(=O)N[C@@H](CCCN=C(N)N)C(=O)N1CCC[C@H]1C(=O)N[C@@H](CCCN=C(N)N)C(=O)N1CCC[C@H]1C(=O)N1CCC[C@H]1C(=O)N[C@@H](CCCN=C(N)N)C(=O)N[C@@H](CC(C)C)C(=O)N1CCC[C@H]1C(=O)N[C@@H](CCCN=C(N)N)C(=O)N1CCC[C@H]1C(=O)N[C@@H](CCCN=C(N)N)C(=O)N1CCC[C@H]1C(=O)N[C@@H](CCCN=C(N)N)C(=O)N1CCC[C@H]1C(=O)N[C@@H](CC(C)C)C(=O)N1CCC[C@H]1C(=O)N[C@@H](Cc1ccc(O)cc1)C(=O)N1CCC[C@H]1C(=O)N[C@@H](CCCN=C(N)N)C(=O)N1CCC[C@H]1C(=O)O` [RRIRPRPPRLPRPRPRPLPYPRP], the MIC was determined as 1 µM (≈ 2.9 µg/mL) in [34], 1 µM (≈ 2.9 µg/mL) in [9], 0.5 µM (≈ 1.45 µg/mL) in [35] and 8 µM (≈ 23.2 µg/mL) in assay [36].

For `CC[C@H](C)[C@H](NC(=O)[C@H](Cc1c[nH]c2ccccc12)NC(=O)[C@H](CCCCN)NC(=O)[C@H](CO)NC(=O)[C@H](CC(C)C)NC(=O)[C@H](Cc1ccccc1)NC(=O)[C@@H](NC(=O)[C@H](CCC(=O)O)NC(=O)[C@H](CC(C)C)NC(=O)[C@H](CC(C)C)NC(=O)[C@H](CCCCN)NC(=O)[C@@H]1CCCN1C(=O)[C@H](CC(N)=O)NC(=O)[C@H](C)NC(=O)[C@H](CC(C)C)NC(=O)[C@H](CCCN=C(N)N)NC(=O)[C@H](CC(N)=O)NC(=O)[C@H](C)NC(=O)[C@H](CC(C)C)NC(=O)[C@H](CCCCN)NC(=O)[C@H](C)NC(=O)[C@H](Cc1ccc(O)cc1)NC(=O)[C@H](CCCN=C(N)N)NC(=O)[C@H](CO)NC(=O)[C@H](CC(C)C)NC(=O)[C@@H](N)CO)[C@@H](C)O)C(=O)NCC(=O)O` [SLSRYAKLANRLANPKLLETFLSKWIG], the MIC in assay [37] came out at 14.5 µM (≈ 44.7 µg/mL); in [38], 17.7 µM (≈ 54.8 µg/mL); in assay [39], 4.58 µM (≈ 14.1 µg/mL); in [40], 4.58 µM (≈ 14.1 µg/mL).
